Data on 30 molecules can be found in patent US20100137313A1 (ASTRAZENECA AB, priority 2008, published 2010).

Sequence of S. pneumoniae Topoisomerase IV ATPase (ParE) (Q59961 whole entry): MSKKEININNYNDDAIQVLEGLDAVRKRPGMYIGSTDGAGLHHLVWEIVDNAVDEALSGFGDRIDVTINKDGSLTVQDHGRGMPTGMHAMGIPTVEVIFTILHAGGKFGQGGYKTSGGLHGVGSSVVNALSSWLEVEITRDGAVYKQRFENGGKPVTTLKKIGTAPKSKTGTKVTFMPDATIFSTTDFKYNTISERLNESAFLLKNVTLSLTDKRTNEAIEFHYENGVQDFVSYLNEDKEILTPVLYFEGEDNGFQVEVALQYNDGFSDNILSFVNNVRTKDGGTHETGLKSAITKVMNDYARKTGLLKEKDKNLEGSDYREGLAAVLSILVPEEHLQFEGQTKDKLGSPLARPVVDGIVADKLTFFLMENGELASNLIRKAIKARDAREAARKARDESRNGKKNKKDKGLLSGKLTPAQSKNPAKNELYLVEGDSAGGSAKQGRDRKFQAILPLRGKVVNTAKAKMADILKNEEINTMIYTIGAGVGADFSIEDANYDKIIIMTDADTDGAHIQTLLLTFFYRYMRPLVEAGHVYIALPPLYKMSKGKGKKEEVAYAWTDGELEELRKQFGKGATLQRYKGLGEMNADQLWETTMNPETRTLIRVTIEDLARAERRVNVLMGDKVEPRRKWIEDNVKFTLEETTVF

This assay concerns the target S. pneumoniae Topoisomerase IV ATPase (ParE) (Streptococcus pneumoniae serotype 4, UniProt Q59961). The experiment in a line: S. pneumoniae Topoisomerase IV ATPase inhibition. It counts as biochemical. The settings on record: values marked * are an average of two or more data points, read-out: % Inh (13 μM) of S. pneumoniae Topoisomerase IV ATPase. An outline of the steps:
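Phosphate release by ParE ATPase from S. pneumoniae read colorimetrically (malachite green, 650 nm), enzyme 1.25 nM, ATP 160 μM, salmon sperm DNA present, buffer 20 mM Tris pH 8.0 with 8 mM MgCl2. IC50 over 10 compound concentrations, EDTA (20 μM) and DMSO controls defining inhibition range.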
As for `CCOC(=O)/C=C/c1cccc(-c2cnc(Nc3ccc(F)c(Cl)c3)nc2N2CCOCC2)c1` [Example 166, (E)-ethyl 3-(3-(2-(3-chloro-4-fluorophenylamino)-4-morpholinopyrimidin-5-yl)phenyl)acrylate], the inhibition at 13 µM is 37.4%.

On to `CN(C)CCCNc1nc(Nc2ccc(F)c(Cl)c2)ncc1-c1ccc(/C=C/C(=O)O)cc1` [Example 24, (2E)-3-[4-(2-[(3-chloro-4-fluorophenyl)amino]-4-{[3-(dimethylamino)propyl]-amino}pyrimidin-5-yl)phenyl]prop-2-enoic acid], for which the inhibition at 13 µM was 98.1%. Next, `Cc1cc(C(F)(F)F)nn1-c1nc(Nc2cc(F)cc(F)c2)ncc1-c1cccc(/C=C/C(=O)O)c1` [Example 620, (2E)-3-(3-{2-[(3,5-difluorophenyl)amino]-4-[5-methyl-3-(trifluoromethyl)-1H-pyrazol-1-yl]pyrimidin-5-yl}phenyl)prop-2-enoic acid]: 96%; `COc1ncc(-c2cnc(Nc3cc(C)cc(C)c3)nc2-n2ccc(C(F)(F)F)n2)cc1C(=O)NS(C)(=O)=O` [Example 898, 5-(2-(3,5-dimethylphenylamino)-4-(3-(trifluoromethyl)-1H-pyrazol-1-yl)pyrimidin-5-yl)-2-methoxy-N-(methylsulfonyl)nicotinamide]: 100%; `COCCNc1ncc(-c2cnc(Nc3ccc(F)c(Cl)c3)nc2-n2ccc(C(F)(F)F)n2)cc1C(=O)O` [Example 1079, 5-(2-(3-Chloro-4-fluorophenylamino)-4-(3-(trifluoromethyl)-1H-pyrazol-1-yl)pyrimidin-5-yl)-2-(2-methoxyethylamino)nicotinic acid]: 100%. Then `O=C(O)COc1cccc(-c2cnc(Nc3ccc(F)c(Cl)c3)nc2N2CCOCC2)c1` [Example 488, (3-{2-[(3-chloro-4-fluorophenyl)amino]-4-(morpholin-4-yl)pyrimidin-5-yl}phenoxy)acetic acid], with 92%; and `CCNC(=O)NS(=O)(=O)c1cccc(-c2cnc(Nc3ccc(F)c(Cl)c3)nc2-n2ccc(C(F)(F)F)n2)c1` [Example 998, 3-(2-(3-Chloro-4-fluorophenylamino)-4-(3-(trifluoromethyl)-1H-pyrazol-1-yl)pyrimidin-5-yl)-N-(ethylcarbamoyl)benzenesulfonamide], with 100%; and `COc1cc(-c2cnc(Nc3ccc(F)c(Cl)c3)nc2NCCCN(C)C)cc(OC)n1` [Example 8, N^2-(3-chloro-4-fluorophenyl)-5-(2,6-dimethoxypyridin-4-yl)-N^4-(3-(dimethylamino)propyl)-pyrimidin-2,4-diamine], with 87.6%. Then `CCOC(=O)c1cncc(-c2cnc(Nc3ccc(F)c(Cl)c3)nc2N2CCC(O)C2)c1` (stereo not drawn) [Example 123, ethyl 5-[2-[(3-chloro-4-fluorophenyl)amino]-4-(3-hydroxypyrrolidin-1-yl)pyrimidin-5-yl]pyridine-3-carboxylate], with 66.4%; and `COCCCNc1nc(Nc2ccc(F)c(Cl)c2)ncc1-c1nc(C)c(C(=O)OC)s1` [Example 505, methyl 2-{2-[(3-chloro-4-fluorophenyl)amino]-4-[(3-methoxypropyl)amino]pyrimidin-5-yl}-4-methyl-1,3-thiazole-5-carboxylate], with 19%; and `COC(=O)c1cccc(-c2cnc(Nc3ccc(F)c(Cl)c3)nc2NCCCN(C)C)c1` [Example 2, methyl 3-(2-(3-chloro-4-fluorophenylamino)-4-(3-(dimethylamino)propylamino)pyrimidin-5-yl)benzoate], with 77.8%.

As for `CCOC(=O)c1cncc(-c2cnc(Nc3ccc(F)c(Cl)c3)nc2NC2CCN(C(C)=O)CC2)c1` [Example 92, 5-[4-(1-Acetyl-piperidin-4-ylamino)-2-(3-chloro-4-fluoro-phenylamino)-pyrimidin-5-yl]-nicotinic acid ethyl ester], the inhibition at 13 µM was determined as 3.56%.

Turning to `O=C(O)C(=O)Nc1cccc(-c2cnc(Nc3ccc(F)c(Cl)c3)nc2-n2ccc(C(F)(F)F)n2)c1` [Example 1072, 2-(3-(2-(3-Chloro-4-fluorophenylamino)-4-(3-(trifluoromethyl)-1H-pyrazol-1-yl)pyrimidin-5-yl)phenylamino)-2-oxoacetic acid], the inhibition at 13 µM came out at 95%. Next, `CCS(=O)(=O)NC(=O)c1cc(-c2cnc(Nc3cc(OC)cc(OC)c3)nc2-n2ccc(C(F)(F)F)n2)cnc1OC` [Example 814, 5-{2-[(3,5-dimethoxyphenyl)amino]-4-[3-(trifluoromethyl)-1H-pyrazol-1-yl]pyrimidin-5-yl}-N-(ethylsulfonyl)-2-methoxypyridine-3-carboxamide]: 100%; `CC(=O)c1ccc(-c2cnc(Nc3ccc(F)c(Cl)c3)nc2NCCCN(C)C)s1` [Example 12, 1-{5-[2-(3-chloro-4-fluorophenylamino)-4-[3-(dimethylamino)propylamino)pyrimidin-5-yl]thiophen-2-yl}ethanone]: 108%; `O=C(O)/C=C/c1cccc(-c2cnc(Nc3cc(F)cc(F)c3)nc2-n2ccc(C(F)(F)F)n2)c1` [Example 619, (2E)-3-(3-{2-[(3,5-difluorophenyl)amino]-4-[3-(trifluoromethyl)-1H-pyrazol-1-yl]pyrimidin-5-yl}phenyl)prop-2-enoic acid]: 100%. On to `COc1cc(Nc2ncc(-c3ccc(C(=O)O)s3)c(NCCCN(C)C)n2)c(OC)cc1Cl` [Example 347, 5-(2-(4-chloro-2,5-dimethoxyphenyl-amino)-4-(3-(dimethylamino)propylamino)pyrimidin-5-yl)thiophene-2-carboxylic acid], for which the inhibition at 13 µM amounted to 42.2%. Then `COCCNC(=O)c1cncc(-c2cnc(Nc3ccc(F)c(Cl)c3)nc2-n2nc(C(F)(F)F)cc2C)c1` [Example 934, 5-(2-(3-chloro-4-fluorophenylamino)-4-(5-methyl-3-(trifluoromethyl)-1H-pyrazol-1-yl)pyrimidin-5-yl)-N-(2-methoxyethyl)nicotinamide], with 100%. Then `O=C(O)/C=C/c1cccc(-c2cnc(Nc3ccc(F)c(Cl)c3)nc2NCCc2c[nH]cn2)c1` [Example 264, (2E)-3-[3-(2-[(3-chloro-4-fluorophenyl)amino]-4-{[2-(1H-imidazol-4-yl)ethyl]amino}pyrimidin-5-yl)phenyl]prop-2-enoic acid], with 87.8%. Take `Fc1ccc(Nc2ncc(-c3nc4ccccc4[nH]3)c(N3CCOCC3)n2)cc1Cl` [Example 497, 5-(1H-benzimidazol-2-yl)-N-(3-chloro-4-fluorophenyl)-4-(morpholin-4-yl)pyrimidin-2-amine]: the inhibition at 13 µM was 61%. With `CN(C)CCCNc1nc(Nc2ccc(F)c(Cl)c2)ncc1-c1cccc(NS(C)(=O)=O)c1` [Example 3, N-(3-(2-(3-chloro-4-fluorophenylamino)-4-(3-(dimethylamino)propylamino)pyrimidin-5-yl)phenyl)methanesulfonamide], the inhibition at 13 µM was found to be 56.8%. Next, `CCOC(=O)c1cncc(-c2cnc(Nc3ccc(F)c(Cl)c3)nc2NCCOc2ccccc2)c1` [Example 112]: 0.15%; `COc1ncc(-c2cnc(Nc3ccc(F)c(Cl)c3)nc2NCCCN(C)C)cn1` [Example 1, N^2-(3-chloro-4-fluorophenyl)-N^4-(3-(dimethylamino)propyl)-2′-methoxy-5,5′-bipyrimidine-2,4-diamine]: 5.14%; `O=C(O)[C@H]1CCCN1c1cccc(-c2cnc(Nc3ccc(F)c(Cl)c3)nc2-n2ccc(C(F)(F)F)n2)c1` [Example 600, 1-(3-{2-[(3-chloro-4-fluorophenyl)amino]-4-[3-(trifluoromethyl)-1H-pyrazol-1-yl]pyrimidin-5-yl}phenyl)-D-proline]: 100%. Then `O=C(O)c1cncc(-c2cnc(Nc3ccc(F)c(Cl)c3)nc2NCCc2nc3ccccc3[nH]2)c1` [Example 258, 5-(4-{[2-(1H-benzimidazol-2-yl)ethyl]amino}-2-[(3-chloro-4-fluorophenyl)amino]-pyrimidin-5-yl)pyridine-3-carboxylic acid], with 88%; and `CCOC(=O)c1cncc(-c2cnc(Nc3ccc(F)c(Cl)c3)nc2N2CCN(CCOC)CC2)c1` [Example 150, ethyl 5-(2-(3-chloro-4-fluorophenylamino)-4-(4-(2-methoxyethyl)piperazin-1-yl)pyrimidin-5-yl)nicotinate], with 53.3%; and `Cc1cc(C(F)(F)F)nn1-c1nc(Nc2ccc(F)c(Cl)c2)ncc1-c1cnc(NCCN2CCOCC2)c(C(=O)O)c1` [Example 1078, 5-(2-(3-Chloro-4-fluorophenylamino)-4-(5-methyl-3-(trifluoromethyl)-1H-pyrazol-1-yl)pyrimidin-5-yl)-2-(2-morpholinoethylamino)nicotinic acid], with 100%.

`O=C(O)c1cncc(-c2cnc(Nc3ccc(F)c(Cl)c3)nc2NCCCN2CCOCC2)c1` [Example 233, 5-[2-[(3-chloro-4-fluorophenyl)amino]-4-(3-morpholin-4-ylpropylamino)pyrimidin-5-yl]pyridine-3-carboxylic acid]: the inhibition at 13 µM came to 75.4%. Then `CCOC(=O)/C=C/c1cccc(-c2cnc(Nc3ccc(F)c(Cl)c3)nc2NCc2cncn2C)c1` [Example 172, (E)-ethyl 3-(3-(2-(3-chloro-4-fluorophenylamino)-4-((1-methyl-1H-imidazol-5-yl)methylamino)pyrimidin-5-yl)phenyl)acrylate], with -32.8%; and `COc1cc(C)cc(Nc2ncc(-c3cncc(C(=O)O)c3)c(-n3nc(C(F)(F)F)cc3C)n2)c1` [Example 777, 5-{2-[(3-methoxy-5-methylphenyl)amino]-4-[5-methyl-3-(trifluoromethyl)-1H-pyrazol-1-yl]pyrimidin-5-yl}pyridine-3-carboxylic acid], with 100%.
